Assay results taken from US8299126B2, “Treatment of canine hemangiosarcoma with a histone deacetylase inhibitor” (priority 2003, dated 2012).
Where “and” joins values, the source holds several entries; their conditions need not be identical. Equal entries are not always repeated. Where two headings read alike, the source gives them in different places.

What was measured:
[1] = Analyzed urine output: removal, half-life and metabolism of SAHA; format: in vivo
Source text: (§1) Therefore, it may be possible with further studies to better understand the effect of SAHA on the vascularization of tumors, not only in canines, but perhaps in humans as well.

[2] = General toxicity of SAHA
Source text: The daily dosage of the compound of the present invention may vary according to a variety of factors such as underlying disease states, the individual's type, species, and medical condition, weight, sex, age, the severity of the condition to be treated; the route of administration; and the particular compound thereof employed. […] A physician or veterinarian of ordinary skill can readily determine and prescribe the effective amount of the drug required to prevent, counter or arrest the progress of the condition. Optimal precision in achieving concentrations of drug within the range that yields efficacy without toxicity requires a regimen based on the kinetics of the drug's availability to target sites. This involves consideration of the absorption, distribution, metabolism, and excretion of a drug, which are readily quantified.

[3] = Stability at room temperature and solubility of the active compound; format: physicochemical
Source text: Suitable preparations of such compositions include emulsions or solid forms suitable for emulsion. As used herein “solid forms” include powders and finely divided particles. Due to the insoluble nature of the active compound, e.g., SAHA, the preferred preparation is in the form of a powder.
as §1

[4] = Follow-up blood chemistry and hematology of the SAHA-treated dog; format: in vivo, canine
Source text: Approximately one month post-splenectomy, the dog was examined and found to be in good condition. […] The platelet count was above the normal range 550, (reference range, 100-450).
(§2) A little over 7 months post-splenectomy, the dog was examined for possible signs of metastasis by chest X-Ray, abdominal ultrasound, echogram, urinalysis and CBC.

[5] = tested on: canine hemangiosarcoma; format: in vivo
Protocol: The present invention is based in part on a case study of a dog having hemangiosarcoma. In the case study, SAHA was administered to the dog at a dose of 100 mg per day (about 3.3 mg/kg/day) post-splenectomy, mixed as a dry powder in dog food. The dog remains in good health more than 400 days post-splenectomy.
A 75 pound (33.75 kg), 12 year old female Rhodesian Ridgeback-Pit Bull mix was diagnosed with hemangiosarcoma. Symptoms included unexplained weakness, pale color to the mucous membranes of the mouth, lack of appetite and excessive consumption of water. The dog was brought to an emergency veterinary center, where X-ray and sonogram examination indicated a multi-lobulated mass on the spleen. An emergency splenectomy was performed, during which approximately 1 liter of blood was aspirated from the body cavity. There was no gross evidence of metastases in the liver or heart and a liver biopsy was taken. […] Nuclei were mildly pleomorphic, oval and had prominent nucleoli. Mitoses were occasionally present. Extramedullary hematopoiesis was present throughout and large areas of hemorrhage and necrosis was typical. The tumor was multifocal throughout the spleen. Pathology results were reported as hemangiosarcoma, grade 1, spleen, with a normal liver.
Starting approximately 2 weeks after splenectomy, when signs of weakness had re-appeared, SAHA was administered in the diet at 100 mg/day, 7 days/week. The dose was based on a rough extrapolation from rat studies. The diet consisted of a cup of standard pelleted dog food (Solid Gold, Hund-n-Flocken), a teaspoonful of brewers yeast (Foster and Smith, Rhinelander, Wis.), 1-2 ml of an essential fatty acid mixture containing n-6 and n-3 PUFA (Foster and Smith), and 2 tablespoonfuls of wet dog food (Pedigree®, Kal Kan Foods, Inc., CA), in which the SAHA was administered.
Within 24 hrs, there was an immediate, observable decrease in weakness and lethargy. […] For three months from diagnosis, the dog went through periods of high alertness and activity punctuated by brief periods of mild lethargy.
as §2

[6] = tested on: human prostate cancer cells; settings: mouse xenograft model (Butler et al. 2000); cited from earlier work
[7] = tested on: NMU-induced rat mammary tumors; settings: cited from earlier work
[8] = tested on: hemangiosarcoma; settings: canines, surgery and chemotherapy with doxorubicin; cited from earlier work
[9] = added to the diet, chemopreventive (Cohen et al., 1999)

O=C(CCCCCCC(=O)Nc1ccccc1)NO [SAHA, suberoylanilide hydroxamic acid]
half-life ([1]; from analyzed urine output): approximately three to four | removal from the body ([1]; from analyzed urine output): rapidly removed from the body | metabolism by the animal ([1]; in vivo): not readily metabolized | toxicity [2]: almost no measurable toxicity other than possible fatigue at high doses | solubility [3]: insoluble | stability at room temperature ([3]; room temperature): stable at room temperature | bands neutrophils ([4]; a little over 7 months post-splenectomy, range 0-3): 6 | RBC ([4]; a little over 7 months post-splenectomy, range 5.5-8.5): 4.98 10^6/µL | segmented neutrophil ([4]; a little over 7 months post-splenectomy, range 32-36): 36.5 | Hematocrit ([4]; a little over 7 months post-splenectomy, range 37-55): 35.3% | alkaline phosphatase ([4]; a little over 7 months post-splenectomy, reference range 10-150): 3 U/L | RBC ([4]; approximately one month post-splenectomy, range 5-8): 4.96 10^6/µL | hemoglobin ([4]; approximately one month post-splenectomy, range 14-21): 13.2 g/dL | LDH ([4]; approximately one month post-splenectomy, reference range 50-550): 49 U/L | platelet count ([4]; approximately one month post-splenectomy, reference range 100-450): 550 10^3/µL | signs of decreased energy after dose increase ([5]; SAHA increased to 110 mg/day): no signs of decreased energy | signs of metastasis by chest X-Ray, abdominal ultrasound, echogram, urinalysis and CBC ([5]; a little over 7 months post-splenectomy): no evidence of dissemination | time to observable decrease in weakness and lethargy ([5]; after start of SAHA 100 mg/day in the diet, about 2 weeks after splenectomy): ≤ 24 h | time the dog remains in good health post-splenectomy ([5]; one dog with hemangiosarcoma, SAHA 100 mg per day (about 3.3 mg/kg/day), later 110 mg/day, in dog food): more than 400 days and 400 days | duration of suppression of metastatic dissemination of neoplastic endothelial cells post-splenectomy ([5]; one dog, SAHA daily in diet): 210 days | tumor growth [6]: inhibited tumor growth | effect on time of appearance, incidence, multiplicity and total number of NMU-induced rat mammary tumors [7, 9]: significantly inhibit | side effects [7, 9]: no deleterious side effects | effect on established rat mammary tumors ([7]; administered in the diet, chemotherapeutic (Cohen et al., 2002)): decrease the size, slow the growth rate and, in some cases, induce the complete regression | side effects ([7]; administered in the diet, established tumors (Cohen et al., 2002)): no toxic side effects

COc1cccc2c1C(=O)c1c(O)c3c(c(O)c1C2=O)C[C@@](O)(C(=O)CO)C[C@@H]3O[C@H]1C[C@H](N)[C@H](O)[C@H](C)O1 [doxorubicin]
prognosis once diagnosed [8]: less than six
